This is an account of results in patent US11559598B2, “Alcohol free, low viscosity, and high water content air freshener compositions” (Belle-Aire Fragrances, LLC, priority 2020, dated 2023).

Values after ≈ are worked out from the molar mass of the structure shown.

The conditions of series [1]: at 25° C.; cited from earlier work.
Series [2] can be described thus: Appearance of air freshener compositions with 20% BAC1342. It counts as physicochemical. The following applies: 20% BAC1342 in distilled water, without any other surfactants. How it is done:
Two of the compositions used traditional used surfactants (polysorbate 20 and octylphenol oxylate), and the third used a glycol ether (diethylene glycol mono butyl ether). The appearances of the compositions were recorded and their viscosities were measured using a Brookfield Rotational Viscometer with Spindle #1 and Rotational Speed at 12 RPM:
Both of the prior art surfactants fail to form transparent microemulsion with 20% BAC1342 in distilled water.

Series [3] in a line: Viscosity by Brookfield Rotational Viscometer. To be noted: 20% BAC1342 in distilled water. It counts as physicochemical. How it is done:
Two of the compositions used traditional used surfactants (polysorbate 20 and octylphenol oxylate), and the third used a glycol ether (diethylene glycol mono butyl ether). The appearances of the compositions were recorded and their viscosities were measured using a Brookfield Rotational Viscometer with Spindle #1 and Rotational Speed at 12 RPM: […]

Take `CC(CC=O)c1ccc(C(C)(C)C)cc1` (stereo not shown) [3-(4-tert-butylphenyl)butanal]: the water solubility in series [1] is 38 µg/mL (≈ 186 µM). In the case of `C=C1CC/C=C(\C)CC[C@@H]2[C@@H]1CC2(C)C` [Beta-caryophyllene], the water solubility in series [1] was 0.05 µg/mL (≈ 0.245 µM). As to `CCCCOCCOCCO` [diethylene glycol n-butyl ether], in series [2], the “formation of transparent microemulsion” value was “forms clear microemulsion”. Moreover, in series [3], the “viscosity (in words)” value was “low enough to be applied in various formats such as room sprays and plug-ins”.
